From ChEMBL document CHEMBL1201862, “PubChem BioAssay data set” (2004)
The source made the active and inactive calls.

Experiments:
HEK293 [1] = assay: inhibition of NOD1-driven NF-kB reporter – cell-based, luminescence, uHTS, primary screen (AID 1578); format: functional; conditions: Homo sapiens
HeLa = assay: Cytotoxicity counterscreen assay for transcriptional activators of heat shock protein 70 (Hsp70). [Related pubchem assays: 1203, 1252 ]; format: functional; conditions: Homo sapiens;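 note: cells exposed to compound for 16 hours before readout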
HEK293 [2] = assay: cells; format: functional, cell-based; conditions: Homo sapiens
[3] = target: T1, Heat shock factor protein 1 (Mus musculus, UniProt P38532); assay: decrease of HSF1-responsive luciferase luminescence – cell-based, NIH3T3, dose retest, confirmation (AID 2382); format: functional;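 note: NIH3T3 fibroblasts with HSF1-driven luciferase reporter stressed by proteasome inhibitor MG132; luminescence from HSF1-driven luciferase expression after 8 hours of MG132 stress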
T1 sequence (P38532 whole entry): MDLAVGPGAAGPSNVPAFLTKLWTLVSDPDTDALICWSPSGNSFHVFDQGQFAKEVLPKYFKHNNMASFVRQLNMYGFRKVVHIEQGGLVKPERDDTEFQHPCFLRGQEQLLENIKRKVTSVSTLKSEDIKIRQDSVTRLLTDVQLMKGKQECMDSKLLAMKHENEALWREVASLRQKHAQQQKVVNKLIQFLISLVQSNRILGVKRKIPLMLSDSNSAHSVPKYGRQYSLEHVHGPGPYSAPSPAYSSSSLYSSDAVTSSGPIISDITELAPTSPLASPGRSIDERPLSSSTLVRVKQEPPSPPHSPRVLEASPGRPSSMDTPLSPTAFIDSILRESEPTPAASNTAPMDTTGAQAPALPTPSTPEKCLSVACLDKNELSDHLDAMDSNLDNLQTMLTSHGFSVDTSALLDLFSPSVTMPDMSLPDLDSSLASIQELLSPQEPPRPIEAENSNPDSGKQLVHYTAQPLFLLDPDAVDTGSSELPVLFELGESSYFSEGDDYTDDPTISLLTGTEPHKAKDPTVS

HEK293 [4] = assay: cells; format: functional, cell-based; conditions: Homo sapiens; remark: listed apart in the source
HEK293 [5] = assay: NOD2 signaling inhibitors in MDP-stimulated cells, cell-based, uHTS, luminescence (AID 2001); format: functional; conditions: Homo sapiens
[6] = Trypanosoma cruzi growth suppression in host cells – NIH3T3 host cells, beta-gal luminescence, confirmation (AID 2044); format: functional, cell-based;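 note: intracellular parasites grown in NIH/3T3 mouse fibroblasts as host cells; luminescent beta-galactosidase reporter signal from transgenic T. cruzi replicating inside host cells; inhibitors lower the luminescence signal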
[7] = viability of PTEN-deleted HCT116 cells – cell-based, HCT116 PTEN knockout, dose response (AID 1047); format: functional;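 note: HCT116 colon tumor cells with PTEN knocked out; cells exposed to compound for 60 hours before readout; potency for loss of cell viability measured by luminescence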
[8] = NIH3T3 cell viability loss – ATP luminescence, mouse fibroblasts, counter-screen, dose response (AID 2010); format: functional, cell-based;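 note: cells exposed to compound for about 90 hours before reading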
[9] = viability of HCT116 lacking mutant beta-catenin – cell-based, human colon tumor, dose response (AID 1045); format: functional;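 note: HCT116 colon tumor cells with beta catenin knocked out; cells exposed to compound for 60 hours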
[10] = target: Sphingosine 1-phosphate receptor 4 (Homo sapiens, UniProt O95977); assay: Fluorescence dose response cell-based high throughput screening assay for antagonists of the Sphingosine 1-Phosphate Receptor 4 (S1P4). [Related pubchem assays: 1524 (Confirmation in triplicates.), 1510 (Primary screen.)]; format: functional
Chain of Sphingosine 1-phosphate receptor 4 (O95977 whole entry): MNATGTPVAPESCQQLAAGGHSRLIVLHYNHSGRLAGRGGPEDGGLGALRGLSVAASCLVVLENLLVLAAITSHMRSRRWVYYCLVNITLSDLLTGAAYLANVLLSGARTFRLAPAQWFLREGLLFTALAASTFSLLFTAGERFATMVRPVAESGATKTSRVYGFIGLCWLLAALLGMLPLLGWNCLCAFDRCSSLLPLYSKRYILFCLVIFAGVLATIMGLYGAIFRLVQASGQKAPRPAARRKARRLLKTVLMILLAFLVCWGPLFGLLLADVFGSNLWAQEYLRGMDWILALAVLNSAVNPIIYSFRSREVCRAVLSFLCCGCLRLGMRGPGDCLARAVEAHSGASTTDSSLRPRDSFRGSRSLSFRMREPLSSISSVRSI

[11] = target: Sphingosine 1-phosphate receptor 1 (Homo sapiens, UniProt P21453); format: functional;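 note: Tango beta-arrestin reporter U2OS cells stimulated with S1P near its EC80; inhibitor potency meaning antagonism of receptor activation by the natural agonist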
Chain of Sphingosine 1-phosphate receptor 1 (P21453 whole entry): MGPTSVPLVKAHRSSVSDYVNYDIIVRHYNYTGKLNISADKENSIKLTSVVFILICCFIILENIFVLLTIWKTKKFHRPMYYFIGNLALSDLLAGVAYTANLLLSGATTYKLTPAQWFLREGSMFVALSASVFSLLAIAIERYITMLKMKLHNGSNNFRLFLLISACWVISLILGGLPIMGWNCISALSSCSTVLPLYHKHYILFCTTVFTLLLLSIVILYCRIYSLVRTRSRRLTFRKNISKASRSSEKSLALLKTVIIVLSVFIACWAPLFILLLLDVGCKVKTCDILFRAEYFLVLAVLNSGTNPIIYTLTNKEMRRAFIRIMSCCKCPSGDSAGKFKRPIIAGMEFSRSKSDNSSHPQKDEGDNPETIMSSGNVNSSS

INS1 = assay: INS-1E survival protection against cytokine death – cell-based, luminescence, retest, dose response (AID 449756); format: functional; conditions: Rattus norvegicus;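 note: cell death triggered by IL-1 beta plus TNF-alpha plus IFN-gamma mixture; protective hits raise ATP signal compared with cytokine alone wells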
[12] = target: Beta-2 adrenergic receptor (Homo sapiens, UniProt P07550); assay: ADRB2 activation measured by internalization – cell-based, FAP fluorogen, flow cytometry, cherry pick 1, dose response (AID 588763); format: functional
Chain of Beta-2 adrenergic receptor (P07550 whole entry): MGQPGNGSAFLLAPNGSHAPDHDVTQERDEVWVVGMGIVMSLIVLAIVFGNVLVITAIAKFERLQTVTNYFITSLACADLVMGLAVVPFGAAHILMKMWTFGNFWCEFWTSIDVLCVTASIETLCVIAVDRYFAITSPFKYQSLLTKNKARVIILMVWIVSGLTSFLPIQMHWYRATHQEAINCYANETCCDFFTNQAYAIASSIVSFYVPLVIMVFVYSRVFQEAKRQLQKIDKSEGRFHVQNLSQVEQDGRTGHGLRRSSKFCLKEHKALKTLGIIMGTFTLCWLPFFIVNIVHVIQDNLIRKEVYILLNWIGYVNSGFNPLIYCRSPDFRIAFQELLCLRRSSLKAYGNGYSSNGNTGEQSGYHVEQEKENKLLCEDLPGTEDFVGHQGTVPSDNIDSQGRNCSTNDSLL

[13] = reduction of Shn3 3'UTR-driven luciferase in osteoblasts – cell-based, Clone20 osteoblasts, firefly luciferase, cherry-picked, dose response (AID 624132); format: functional;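 note: firefly luciferase luminescence from reporter carrying the Shn3 3'UTR in osteoblasts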
[14] = loss of viability in HepG2 cells – cell-based, CellTiter-Glo, cherry-picked, cytotoxicity control for Shn3 inhibitor project, dose response (AID 624134); format: functional
[15] = non-specific 3'UTR reporter inhibition in Clone20-Shn3RL – cell-based, Renilla luciferase, cherry-picked, counter-screen for Shn3 inhibitor project, dose response (AID 624133); format: functional
[16] = target: Peroxisome proliferator-activated receptor gamma/Nuclear receptor coactivator 2 (Homo sapiens, UniProt P37231); format: functional;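 note: agonist potency for raising coactivator recruitment to the receptor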
Chain of Peroxisome proliferator-activated receptor gamma/Nuclear receptor coactivator 2 (P37231 whole entry): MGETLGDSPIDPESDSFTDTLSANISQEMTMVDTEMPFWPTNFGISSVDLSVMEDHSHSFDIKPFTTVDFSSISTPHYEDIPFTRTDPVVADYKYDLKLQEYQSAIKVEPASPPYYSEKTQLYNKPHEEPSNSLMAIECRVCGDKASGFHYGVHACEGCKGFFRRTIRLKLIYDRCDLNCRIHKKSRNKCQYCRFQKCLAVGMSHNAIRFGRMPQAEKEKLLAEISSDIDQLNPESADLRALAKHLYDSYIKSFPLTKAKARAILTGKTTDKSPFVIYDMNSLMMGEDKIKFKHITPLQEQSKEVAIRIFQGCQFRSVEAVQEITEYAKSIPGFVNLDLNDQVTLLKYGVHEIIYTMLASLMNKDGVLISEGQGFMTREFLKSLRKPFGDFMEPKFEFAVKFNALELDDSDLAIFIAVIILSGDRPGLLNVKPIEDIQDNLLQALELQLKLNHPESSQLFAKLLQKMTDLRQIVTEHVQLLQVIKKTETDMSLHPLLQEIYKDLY
Chain of Peroxisome proliferator-activated receptor gamma/Nuclear receptor coactivator 2 (Q15596 whole entry, further chain): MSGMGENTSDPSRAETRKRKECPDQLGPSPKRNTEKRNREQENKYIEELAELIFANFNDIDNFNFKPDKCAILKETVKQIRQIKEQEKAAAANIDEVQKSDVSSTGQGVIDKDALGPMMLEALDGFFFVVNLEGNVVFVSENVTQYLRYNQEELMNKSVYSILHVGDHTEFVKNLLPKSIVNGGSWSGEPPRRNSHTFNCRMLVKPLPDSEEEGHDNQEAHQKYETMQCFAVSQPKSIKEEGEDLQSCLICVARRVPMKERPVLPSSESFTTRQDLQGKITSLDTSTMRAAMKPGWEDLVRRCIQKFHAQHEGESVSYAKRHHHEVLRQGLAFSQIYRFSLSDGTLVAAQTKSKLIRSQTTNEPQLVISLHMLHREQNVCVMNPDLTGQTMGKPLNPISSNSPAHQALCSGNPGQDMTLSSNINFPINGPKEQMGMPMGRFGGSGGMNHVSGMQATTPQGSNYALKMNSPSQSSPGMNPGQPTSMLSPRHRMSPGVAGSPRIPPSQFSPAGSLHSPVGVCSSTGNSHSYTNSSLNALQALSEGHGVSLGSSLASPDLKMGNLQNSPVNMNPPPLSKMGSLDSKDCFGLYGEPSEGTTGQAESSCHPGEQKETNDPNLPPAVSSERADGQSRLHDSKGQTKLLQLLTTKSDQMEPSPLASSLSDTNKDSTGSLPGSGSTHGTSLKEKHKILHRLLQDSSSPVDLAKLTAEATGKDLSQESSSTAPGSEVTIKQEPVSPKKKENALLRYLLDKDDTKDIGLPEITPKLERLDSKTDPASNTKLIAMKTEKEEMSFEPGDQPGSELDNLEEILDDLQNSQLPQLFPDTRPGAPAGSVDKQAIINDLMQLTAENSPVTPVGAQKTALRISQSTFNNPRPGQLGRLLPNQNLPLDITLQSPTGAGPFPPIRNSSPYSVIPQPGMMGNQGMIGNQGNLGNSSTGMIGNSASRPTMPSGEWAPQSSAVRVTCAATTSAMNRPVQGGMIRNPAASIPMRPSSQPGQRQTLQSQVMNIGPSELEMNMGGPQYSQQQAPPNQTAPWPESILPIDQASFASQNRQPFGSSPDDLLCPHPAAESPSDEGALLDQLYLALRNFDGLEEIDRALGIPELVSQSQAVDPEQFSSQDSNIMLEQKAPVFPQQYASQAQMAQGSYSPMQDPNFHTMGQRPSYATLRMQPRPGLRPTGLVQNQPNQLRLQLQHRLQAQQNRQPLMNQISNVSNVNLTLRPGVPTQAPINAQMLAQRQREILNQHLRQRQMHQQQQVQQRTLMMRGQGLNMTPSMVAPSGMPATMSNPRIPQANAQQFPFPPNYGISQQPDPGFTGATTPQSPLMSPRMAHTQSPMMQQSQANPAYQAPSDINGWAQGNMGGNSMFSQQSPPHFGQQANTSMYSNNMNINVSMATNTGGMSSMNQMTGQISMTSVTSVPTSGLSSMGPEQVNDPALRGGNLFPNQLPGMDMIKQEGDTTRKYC

[17] = target: Peroxisome proliferator-activated receptor gamma/Nuclear receptor coactivator 1 (Homo sapiens, UniProt P37231); format: functional;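 note: agonist potency as compounds enhance coactivator SRC-1 recruitment to PPARgamma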
[18] = target: Peroxisome proliferator-activated receptor gamma/Nuclear receptor coactivator 3 (Homo sapiens, UniProt P37231); format: functional;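 note: agonist potency for raising coactivator recruitment to the receptor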
Large T antigen = Large T antigen (Simian virus 40, UniProt P03070); format: functional, Betapolyomavirus macacae;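 note: Confirmatory-stage PubChem screen for compounds that inhibit SV40 T antigen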
Chain of Large T antigen (P03070 whole entry): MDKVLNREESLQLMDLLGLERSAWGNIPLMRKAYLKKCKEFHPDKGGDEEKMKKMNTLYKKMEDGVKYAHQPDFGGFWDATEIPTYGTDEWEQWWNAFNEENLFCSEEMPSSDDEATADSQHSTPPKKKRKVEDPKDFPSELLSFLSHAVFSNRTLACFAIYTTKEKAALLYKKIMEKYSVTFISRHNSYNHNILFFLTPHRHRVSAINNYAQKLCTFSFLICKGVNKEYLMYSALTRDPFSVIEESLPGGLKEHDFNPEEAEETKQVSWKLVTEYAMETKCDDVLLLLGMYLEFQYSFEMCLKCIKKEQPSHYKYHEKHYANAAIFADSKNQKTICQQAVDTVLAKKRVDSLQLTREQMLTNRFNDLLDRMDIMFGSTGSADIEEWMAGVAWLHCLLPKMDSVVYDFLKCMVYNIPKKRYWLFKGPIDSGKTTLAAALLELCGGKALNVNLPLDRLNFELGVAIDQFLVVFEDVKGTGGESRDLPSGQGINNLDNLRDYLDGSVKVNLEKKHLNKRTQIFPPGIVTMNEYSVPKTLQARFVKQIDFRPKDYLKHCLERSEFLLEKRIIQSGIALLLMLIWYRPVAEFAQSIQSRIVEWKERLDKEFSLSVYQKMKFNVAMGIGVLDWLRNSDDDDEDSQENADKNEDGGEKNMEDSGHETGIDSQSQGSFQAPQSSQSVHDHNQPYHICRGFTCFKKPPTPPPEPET

[19] = target: Induced myeloid leukemia cell differentiation protein Mcl-1 (Homo sapiens, UniProt Q07820); format: functional
Chain of Induced myeloid leukemia cell differentiation protein Mcl-1 (Q07820 whole entry): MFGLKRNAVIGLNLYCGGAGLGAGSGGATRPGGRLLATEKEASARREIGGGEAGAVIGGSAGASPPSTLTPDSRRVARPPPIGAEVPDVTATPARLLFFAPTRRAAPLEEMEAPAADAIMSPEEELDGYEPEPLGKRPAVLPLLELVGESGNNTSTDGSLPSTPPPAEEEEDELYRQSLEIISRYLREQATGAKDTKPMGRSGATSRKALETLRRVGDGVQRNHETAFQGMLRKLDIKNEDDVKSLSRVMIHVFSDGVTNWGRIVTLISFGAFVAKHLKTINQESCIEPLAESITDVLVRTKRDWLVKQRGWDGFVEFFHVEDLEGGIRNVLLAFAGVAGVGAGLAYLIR

[20] = target: T2, Mannose-6-phosphate isomerase (Homo sapiens, UniProt P34949); assay: MPI inhibition at elevated mannose 6-phosphate – biochemical, fluorescence intensity, high mannose 6-phosphate, primary screen (AID 1220)
T2 sequence (P34949 whole entry): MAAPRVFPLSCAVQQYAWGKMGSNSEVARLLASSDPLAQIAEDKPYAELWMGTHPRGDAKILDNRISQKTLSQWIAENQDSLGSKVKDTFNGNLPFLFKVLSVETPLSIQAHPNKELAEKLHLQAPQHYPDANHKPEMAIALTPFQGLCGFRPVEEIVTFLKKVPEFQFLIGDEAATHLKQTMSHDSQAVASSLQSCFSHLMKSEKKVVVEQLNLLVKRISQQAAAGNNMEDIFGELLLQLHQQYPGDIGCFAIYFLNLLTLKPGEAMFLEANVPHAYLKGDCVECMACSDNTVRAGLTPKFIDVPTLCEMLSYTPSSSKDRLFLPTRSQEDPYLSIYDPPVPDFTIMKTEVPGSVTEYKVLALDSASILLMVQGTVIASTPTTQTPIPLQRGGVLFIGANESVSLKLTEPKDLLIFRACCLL

[21] = target: T3, RNA-binding protein pos-1 (Caenorhabditis elegans, UniProt G5EF15); assay: disruptors of C. elegans POS-1 RNA interaction – biochemical, fluorescence polarization, dose response (AID 1964);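 note: purified POS-1 fused to maltose binding protein made in E. coli; potency of compounds blocking POS-1 binding to fluorescent RNA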
T3 sequence (G5EF15 whole entry): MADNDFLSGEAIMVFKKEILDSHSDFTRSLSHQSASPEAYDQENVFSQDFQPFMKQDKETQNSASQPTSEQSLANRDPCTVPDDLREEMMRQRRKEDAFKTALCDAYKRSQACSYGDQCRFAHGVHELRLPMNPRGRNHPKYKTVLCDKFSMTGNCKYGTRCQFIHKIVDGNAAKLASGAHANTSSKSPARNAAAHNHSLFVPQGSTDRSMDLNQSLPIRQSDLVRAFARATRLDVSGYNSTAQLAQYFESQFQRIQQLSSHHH

[22] = target: T4, Zinc finger protein mex-5 (Caenorhabditis elegans, UniProt Q9XUB2); assay: potency of MEX-5 RNA-binding blockers – biochemical, C. elegans, fluorescence polarization, dose response (AID 1960)
T4 sequence (Q9XUB2 whole entry): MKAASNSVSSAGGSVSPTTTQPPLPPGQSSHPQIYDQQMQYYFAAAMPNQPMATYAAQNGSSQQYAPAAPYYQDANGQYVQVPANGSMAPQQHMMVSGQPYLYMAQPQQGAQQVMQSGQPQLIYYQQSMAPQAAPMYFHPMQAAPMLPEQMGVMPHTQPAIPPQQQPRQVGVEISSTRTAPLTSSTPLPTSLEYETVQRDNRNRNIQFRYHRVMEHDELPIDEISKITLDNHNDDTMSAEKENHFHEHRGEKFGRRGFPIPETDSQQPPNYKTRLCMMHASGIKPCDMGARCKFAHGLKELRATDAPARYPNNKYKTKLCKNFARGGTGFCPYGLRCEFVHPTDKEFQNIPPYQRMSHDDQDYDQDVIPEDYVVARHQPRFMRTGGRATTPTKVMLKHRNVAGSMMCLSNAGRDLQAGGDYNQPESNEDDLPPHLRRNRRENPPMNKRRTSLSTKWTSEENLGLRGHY

[23] = antiviral protection against BTV-induced cell death – arbovirus, BSR cells, confirmation (AID 1250); format: functional;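 note: protection from viral cytopathic effect measured as cell viability by ATP luminescence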
[24] = target: T5, Replicative DNA helicase DnaB (Mycobacterium tuberculosis, UniProt P9WMR3); assay: DnaB intein splicing inhibitors, dose response, biochemical, cell-free fluorescence (AID 449749); format: functional
T5 sequence (P9WMR3 whole entry): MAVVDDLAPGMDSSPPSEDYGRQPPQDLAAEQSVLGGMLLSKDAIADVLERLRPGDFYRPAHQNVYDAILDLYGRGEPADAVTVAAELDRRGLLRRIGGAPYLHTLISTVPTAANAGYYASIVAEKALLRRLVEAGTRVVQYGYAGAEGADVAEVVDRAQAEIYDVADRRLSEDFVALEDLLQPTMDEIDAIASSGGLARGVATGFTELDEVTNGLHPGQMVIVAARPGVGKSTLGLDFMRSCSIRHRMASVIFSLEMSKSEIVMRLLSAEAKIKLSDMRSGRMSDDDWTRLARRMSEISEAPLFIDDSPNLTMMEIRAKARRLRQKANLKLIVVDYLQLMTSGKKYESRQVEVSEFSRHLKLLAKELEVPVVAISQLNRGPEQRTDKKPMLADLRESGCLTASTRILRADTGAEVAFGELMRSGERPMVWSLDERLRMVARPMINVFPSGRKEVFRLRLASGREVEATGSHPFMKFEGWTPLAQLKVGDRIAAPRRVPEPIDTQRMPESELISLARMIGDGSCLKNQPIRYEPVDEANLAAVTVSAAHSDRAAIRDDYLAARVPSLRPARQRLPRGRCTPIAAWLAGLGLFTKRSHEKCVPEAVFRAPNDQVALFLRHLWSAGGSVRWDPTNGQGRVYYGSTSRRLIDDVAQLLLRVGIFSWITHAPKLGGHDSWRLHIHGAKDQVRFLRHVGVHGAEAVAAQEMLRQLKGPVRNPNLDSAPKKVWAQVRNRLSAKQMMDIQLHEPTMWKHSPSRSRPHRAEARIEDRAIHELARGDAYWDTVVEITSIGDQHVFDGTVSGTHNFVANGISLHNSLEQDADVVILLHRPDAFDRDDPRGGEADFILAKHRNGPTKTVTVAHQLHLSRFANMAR

Protein RecA = target: T6, Protein RecA (Mycobacterium tuberculosis, UniProt P9WHJ3); assay: Fluorescence Cell-Free Homogeneous Dose Retest to Identify Inhibitors of RecA-Intein Splicing Activity. [Related pubchem assays (depositor defined):AID2097, AID2223, AID489010, AID492950]; format: functional
T6 sequence (P9WHJ3 whole entry): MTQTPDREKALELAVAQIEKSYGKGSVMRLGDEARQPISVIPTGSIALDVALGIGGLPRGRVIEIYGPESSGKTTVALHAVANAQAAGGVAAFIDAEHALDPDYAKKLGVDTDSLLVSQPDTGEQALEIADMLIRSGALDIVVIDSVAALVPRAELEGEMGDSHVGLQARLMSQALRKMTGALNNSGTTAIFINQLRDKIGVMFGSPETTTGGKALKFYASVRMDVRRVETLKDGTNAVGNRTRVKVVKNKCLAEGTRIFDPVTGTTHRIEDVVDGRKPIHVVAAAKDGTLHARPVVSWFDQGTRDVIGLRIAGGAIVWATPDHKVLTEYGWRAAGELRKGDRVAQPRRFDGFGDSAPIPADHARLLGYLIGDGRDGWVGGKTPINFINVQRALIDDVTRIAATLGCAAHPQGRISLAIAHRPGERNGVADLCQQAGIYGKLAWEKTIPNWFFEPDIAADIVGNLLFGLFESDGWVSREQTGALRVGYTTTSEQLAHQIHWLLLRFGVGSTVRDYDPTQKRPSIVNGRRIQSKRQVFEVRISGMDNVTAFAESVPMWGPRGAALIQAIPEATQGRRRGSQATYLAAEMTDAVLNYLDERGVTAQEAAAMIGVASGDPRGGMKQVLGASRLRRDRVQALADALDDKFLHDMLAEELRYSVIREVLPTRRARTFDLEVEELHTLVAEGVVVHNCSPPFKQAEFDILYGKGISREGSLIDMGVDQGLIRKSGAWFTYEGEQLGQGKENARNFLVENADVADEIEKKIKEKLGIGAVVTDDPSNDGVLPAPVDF

SMILES: Cc1ccc(-c2nc(NC(=O)c3nn(C)cc3[N+](=O)[O-])sc2C)cc1C
- EC50 (HEK293 [1]): 9.93 µM (active)
- CC50 (HeLa): 2.08 µM (active)
- IC50 (HEK293 [2]): 6.72 µM (active)
- EC50 [3]: 4.28 µM (inconclusive)
- IC50 (HEK293 [4]): 17.7 µM (active)
- IC50 (HEK293 [5]): 3.82 µM (active)
- EC50 [6]: 2.7 µM (active)
- EC50 [7]: 0.224 µM (active)
- EC50 [8]: 4.71 µM (active)
- EC50 [9]: 0.207 µM (active)
- IC50 [10]: 1 µM (active)
- IC50 [11]: 18.1 µM (not active)
- AC50 (INS1): 3.62 µM (active)
- EC50 [12]: 64.1 µM (inactive)
- AC50 [13]: 2.25 µM (active)
- AC50 [14]: 18.2 µM (active)
- AC50 [15]: 6.06 µM (active)

SMILES: COc1ccc(N2CCC(CNC(=O)Nc3ccccc3)C2)cc1 (stereo not drawn)
- EC50 [16]: > 79.4 µM (not active)
- EC50 [17]: > 79.4 µM (not active)
- EC50 [18]: > 79.4 µM (not active)
- IC50 (Large T antigen): 10.6 µM (active)
- IC50 [19]: 2.58 µM (active)
- IC50 [20]: > 50 µM (not active)

SMILES: O=C1NC(=O)N(Cc2ccc(F)cc2)C(=O)/C1=C/NNC(=O)c1ccccc1O
- EC50 [21]: 10.1 µM (active)
- EC50 [22]: 9.33 µM (active)
- IC50 [23]: > 100 µM (active)
- AC50 [24]: 6.55 µM (active)
- EC50 (Protein RecA): 21.9 µM (active)
